# Like-named read-outs stand apart in the source and are kept apart here.
# Legend:
# [1] = system: human iPSC-derived cerebral cortical neural stem cells (hNSCs); test: Neurogenesis and neuronal differentiation of hNSCs (MAP2 immunocytochemistry); assay type: cell-based; conditions: 0.1 and 1 μM, 3 or 5 days
# Experimental: Human iPSC-derived cerebral cortical neural stem cells (hNSCs) (Axol Bioscience Inc., UK) were cultured as monolayers at a density of 1.010^4 cells/cm^2 on 100 mm diameter Petri dishes. The cells were collected from their original cryovial, suspended in Plating-XF Medium and plated on Petri dishes coated with SureBondXF 1× working solution prepared in D-PBS (without calcium or magnesium). hNSCs were incubated at 37° C. and 5% CO2 and 24 hours after of incubation, the plating medium was replaced with fresh Neural Expansion-XF Medium supplemented with the growth factors Recombinant Human EGF and Recombinant Human FGF2 (final concentration of 20 ng/mL (1×) of FGF2 and EGF). The cultures were re-fed with fresh Neural Expansion-XF supplemented with EGF and FGF2 every two days. When the hNSCs reached approximately 80% confluence, they were prepared for treatment. […]
# Digital Leica LAS AF 2.2.0 software (Live Data Mode system) was used for counting Map2ab+DAPI+ cells. […] For each experimental condition, cells from 3 different tubes were each analyzed in triplicate and 3 frames were collected at 20× magnification. Data were analyzed with GraphPad Prism 6 software, version 6.05 (GraphPad, Inc.) and are expressed as mean±SEM. Statistical differences among groups were determined by two-way ANOVA followed by post hoc Bonferroni tests for comparison among means. […]
# [2] = system: MES-induced tonic seizures; test: Maximal electroshock seizure (MES) test; assay type: in vivo; conditions: Mus musculus, ip, i.p. 60 minutes prior to MES, male C57Bl6 mice, sigmoidal curve, constant top, read-out: ED50 protecting 50% of mice against MES-induced tonic seizures
# Experimental: This study was performed using male C57Bl6 mice, weighing between 23.6-31.2 g, which were purchased from a licensed breeder (Charles River, UK). Naïve mice were acclimatized to the procedure room in their home cages, with food and water available ad libitum. Animals were housed in groups of 2-3, in standard caging on a 12 hr/12 hr light-dark cycle. All animals were tail marked and weighed at the beginning of the study. Animals were randomly assigned to vehicle or treatment groups.
# The following drugs were used in this study: synthetic CBD (SYN) and botanically derived purified CBD (BOT). The control vehicle used was (1:1:18), which was 5% Ethanol, 5% Kolliphor, 90% saline, and has been used extensively throughout similar seizure tests. All drugs were dissolved in the control vehicle for comparison. Animals were dosed (10 ml/kg) i.p. at 60 minutes prior to the administration of the maximal electroshock seizure (IVIES) test. In addition to the vehicle group, the dosage groups used for each treatment and included doses of 10, 50, 100 (Experiment 1 only), 150 and 200 mg/kg for CBD (SYN) and CBD (BOT). The number of animals in each of these groups were 10 (n=10).
# Two separate experiments were undertaken using two different batches of the botanically derived purified CBD. […]
# [3] = system: sub-chronic PCP-induced deficit in novel object recognition; test: Novel object recognition (NOR) test after sub-chronic PCP; assay type: in vivo; conditions: rat dose multiplied by 0.16 (FDA dose conversion guidance)
# Experimental: Female hooded-Lister rats were used for this experiment. Rats were housed in groups of 5 under standard laboratory conditions under a 12 hr light: dark cycle, with lights on at 0700 hr. Testing was carried out in the light phase. Rats were randomly assigned to two treatment groups and treated with vehicle, n=20 (distilled water, i.p.) or Phencyclidine hydrochloride (PCP), n=100 (2 mg/kg, i.p. twice daily for 7-days). PCP was dissolved in distilled water. This was followed by a 7-day wash out period before the rats were tested following acute treatment with CBD, risperidone or vehicle. […]
# Following the 3 minute habituation period, the rats are given two 3 minute trials (T1 and T2) which were separated by a 1 minute inter-trial interval in the home cage during which the objects were changed. Behavior in all trials was recorded on video for subsequent blind scoring. […]
# The exploration time(s) of each object (A, B, familiar and novel) in each trial were recorded using two stopwatches and the following factors were calculated: total exploration time of both objects in the acquisition trial, total exploration time of both objects in the retention trial. Habituation of exploratory activity included the exploration time, as measured by the number of lines crossed, for both trials.
# All data were assessed for normality using D'Agostino and Pearson normality test. […]
smiles,measurement,setting,value
"C=C(C)[C@@H]1CCC(C)=C[C@H]1c1c(O)cc(CCCCC)cc1O [Synthetic CBD, 2-[(1R,6R)-3-Methyl-6-(1-methylethenyl)-2-cyclohexen-1-yl]-5-pentyl-1,3-benzenediol]",Effect on neurogenesis and neuronal differentiation of hNSCs relative to vehicle-treated cells,[1],did not have a significant effect
same,ED50,[2]; Experiment 1,77.6 mg/kg
same,ED50,[2]; Experiment 2,77.4 mg/kg
same,Human equivalent of the rat MED,[3],1.6 mg/kg/day
